Results on 8 substances are retold here after paper PMC4425356, “An Extended Surface Loop on Toxoplasma gondii Apical Membrane Antigen 1 (AMA1) Governs Ligand Binding Selectivity” (PLoS ONE, 2015).

Entries after “also recorded” stand apart in the source; their conditions may differ. Where two headings read alike, the source gives them in different places. Ends that are not written are not given here.

Assay [1] deals with Toxoplasma gondii apical membrane antigen 1 (TgAMA1) (Toxoplasma gondii). Nature of the assay: ITC; TgAMA1 or TgAMA1ΔDIIloop in the sample cell (10 to 16 μM for nanomolar affinity, 35 to 75 μM for micromolar affinity), TRX-fused peptides (110 to 180 μM or 360 to 1180 μM) added in 17 injections of 2 μL; 25 °C; HBS (20 mM HEPES pH 7.5, 150 mM NaCl); one-site model. (In ITC the heat of successive injections is recorded.)

Assay [2] concerns the target TgAMA1ΔDIIloop (TgAMA1 with the mobile portion of the DII loop replaced with a short Gly-Ser linker) (Toxoplasma gondii) (UniProt B6KAM0). The description is as above.
Assay [3] has as its system TgAMA1ΔDIIloop. Nature of the assay: Isothermal titration calorimetry of TRX-fused RON2D3 peptides titrated into TgAMA1ΔDIIloop (DII loop replaced by Gly-Ser linker). In kind it is binding, Toxoplasma gondii. Particulars: for binding to TgAMA1ΔDIIloop (in words) / Kd / -TΔS / ΔG / Molar Ratio (RON2/AMA1) / ΔH: ITC, 25 °C; for binding to TgAMA1ΔDIIloop (in words) / -TΔS / ΔG / Molar Ratio (RON2/AMA1) / ΔH: HBS pH 7.5; for Kd / -TΔS / ΔG / Molar Ratio (RON2/AMA1) / ΔH: TgAMA1ΔDIIloop, TRX-fused peptides; for Kd: HBS (20 mM HEPES pH 7.5, 150 mM NaCl), one-site model, representative of at least two independent experiments; for Kd / Molar Ratio (RON2/AMA1) / ΔH: single experiment; for Molar Ratio (RON2/AMA1) / ΔH: representative of at least two. The source says:
A sequence encoding the mature ectoplasmic region of TgAMA1 (amino acids 64 to 484, TGME49_255260 [24]) with the twenty residues of the DII loop disordered in the TgAMA1-TgRON2D3 co-structure replaced by a seven residue Gly-Ser linker (TgAMA1ΔDIIloop) was synthesized and subcloned into a modified pAcGP67b vector (Pharmingen) with a C-terminal thrombin cleavage site and hexahistidine tag. TgAMA1ΔDIIloop encoding virus for insect cell protein production was generated and amplified using established protocols. Following a 65 hr infection the supernatant was harvested, concentrated, and TgAMA1ΔDIIloop was purified by nickel batch binding as previously described. The hexahistidine tag was removed by thrombin cleavage and the protein was further purified by size exclusion chromatography (SEC) (Superdex 16/60 75) in HEPES buffered saline (HBS: 20 mM HEPES pH 7.5, 150 mM NaCl).
(§1) For ITC experiments, TgAMA1 was produced and purified as previously reported. Thioredoxin fusions of TgRON2D3, TgRON2L1D3, TgRON2L2D3, EtRON2D3 and PfRON2D3 were produced in E. coli BL21 cells and purified by nickel-affinity and SEC.
(§2) Purified TgAMA1, TgAMA1ΔDIIloop, and TRX fusions of TgRON2D3, TgRON2L1D3 TgRON2L2D3, EtRON2D3, and PfRON2D3 were dialyzed against HBS at 4 °C. All ITC experiments were carried out at 25 °C on a MicroCal iTC200 instrument (GE Healthcare). […] Data were processed using Origin software (MicroCal) and the dissociation constants (Kd) were determined using a one-site model. Values are derived from a single experiment, but are representative of at least two independent experiments.

For assay [4], the system named is TgAMA1. Nature of the assay: Isothermal titration calorimetry of TRX-fused RON2D3 peptides titrated into TgAMA1. Particulars: ITC, 25 °C; for -TΔS / ΔG / Kd / Molar Ratio (RON2/AMA1) / ΔH: TgAMA1, TRX-fused peptides; for Molar Ratio (RON2/AMA1) / ΔH: representative of at least two. In kind it is binding, Toxoplasma gondii. The method, then:
as §1, §2

Assay [5] deals with TgAMA1ΔDIIloop. Nature of the assay: Native gel electrophoresis of TgAMA1ΔDIIloop co-purified with EtRON2D3. In kind it is binding, Toxoplasma gondii. Particulars: 8–25% gradient native gel, HBS, Coomassie Brilliant Blue; sample co-purified with EtRON2D3. From the text: A sequence encoding a portion of EtRON2D3 (amino acids 1262 to 1297, ETH_00012760) was synthesized and subcloned into a modified pET32a vector (Novagen) incorporating N-terminal hexahistidine and thioredoxin (TRX) tags with a thrombin cleavage site. The fusion protein was produced in E. coli BL21 cells. For crystallization, EtRON2D3-TRX was cleaved to remove the fusion tags and co-purified with TgAMA1ΔDIIloop by SEC in HBS followed by anion exchange chromatography using a Source 30Q column (20 mM HEPES pH 8.0, 10 mM NaCl; elution gradient with 20 mM HEPES pH 8.0, 1 M NaCl) to remove residual TRX tag.
Purified TgAMA1ΔDIIloop and co-purified TgAMA1ΔDIIloop-EtRON2D3 protein samples in HBS were run on an 8–25% gradient native gel using the PhastGel system (GE Healthcare), and protein bands were visualized with Coomassie Brilliant Blue staining.

Assay [6] relates to TgAMA1 or TgAMA1ΔDIIloop. Nature of the assay: Isothermal titration calorimetry, TRX negative control. It counts as binding, Toxoplasma gondii. Particulars: ITC, 25 °C, HBS pH 7.5. The method, then:
as §2

Usually Kd stands for the equilibrium constant for the complex coming apart. Consider “EtRON2D3-TRX (Eimeria tenella RON2 domain 3 peptide, thioredoxin fusion) (from UniProt U6KQJ2 1262-1297)”, for which the Kd is 2.2 µM in assay [1] and < 0.008 µM in assay [2].
Turning to “EtRON2D3: a portion of EtRON2D3 (amino acids 1262 to 1297, ETH_00012760), Eimeria tenella RON2 peptide (thioredoxin-DITQHLNDSGLGPAVECLENLVVGPVCPAAVVAPAV; not fully specified (bridges); also: disulfide partially formed)”, in assay [3], the “binding to TgAMA1ΔDIIloop (in words)” value was “bound both TgRON2D3 and EtRON2D3 with high affinity; also recorded: significantly tighter binding to TgAMA1ΔDIIloop relative to TgAMA1”; binding was characterised by a dissociation constant (Kd) of 0.008 ± 0.0031 µM; the “-TΔS” value is -0.42 kJ/mol; the ΔG is -46.4 kJ/mol. Further, in assay [3], the “Molar Ratio (RON2/AMA1)” value came to 0.96 ± 0.01 and the ΔH is -46 ± 0.42 kJ/mol. Besides, the “binding to TgAMA1ΔDIIloop (in words)” value in assay [3] (listed as EtRON2) was “bound with high affinity to TgAMA1ΔDIIloop”. Moreover, in assay [3] (ratio of ITC Kd, TgAMA1 (2.2 μM) vs TgAMA1ΔDIIloop (8.0 nM)), the “fold tighter binding to TgAMA1ΔDIIloop relative to TgAMA1” value is recorded as “approximately 275 fold”. In assay [4] (HBS pH 7.5), the “binding to TgAMA1 (in words)” value was “bound both TgRON2D3 and EtRON2D3 but only the former with high affinity”; the “-TΔS” value is -12.6 kJ/mol; the ΔG is -32.2 kJ/mol. In addition, in assay [4] (HBS pH 7.5, listed as EtRON2), the “binding to TgAMA1 (in words)” value is recorded as “showed only weak binding to TgAMA1”. Besides, in assay [4] (HBS pH 7.5, rounded value, read-out: affinity (Kd)), the Kd came out at 2.2 µM. In assay [4] (HBS pH 7.5, single experiment), the “Molar Ratio (RON2/AMA1)” value is 1.17 ± 0.02 and the ΔH was -19.7 ± 0.42 kJ/mol. For the same substance, the “native PAGE migration / retention on TgAMA1ΔDIIloop” value in assay [5] is listed as “altered migration for the sample co-purified with EtRON2D3”.
The stoichiometry N is a count of units in the complex or per binding partner. Turning to “PfRON2D3 thioredoxin fusion (Plasmodium falciparum RON2 domain 3 peptide)”, in assay [2], the Kd amounted to 1.4 µM and the stoichiometry N came out at 1.
Take “TRX: thioredoxin, injected as a negative control”: the “binding of TRX negative control” value in assay [6] was “no detectable binding”.
Take “TgRON2D3 thioredoxin fusion (Toxoplasma gondii RON2 domain 3 peptide) (from UniProt B6KV60 1297-1332)”: in assay [1], the Kd was < 0.0058 µM.
With “TgRON2D3: RON2 domain 3 peptide of T. gondii, thioredoxin fusion produced in E. coli BL21 (DIVQHMEDIGGAPPVSCVTNEILGVTCAPQAIAKAT; cysteine pairing not given here; also: thioredoxin fusion, end not given here, His tag, end not given here)”, in assay [3], the “binding to TgAMA1ΔDIIloop (in words)” value is “bound both TgRON2D3 and EtRON2D3 with high affinity”; the Kd was found to be 0.0036 ± 0.003 µM; the “-TΔS” value was determined as 44.4 kJ/mol; the ΔG is -48.5 kJ/mol. Besides, in assay [3], the “Molar Ratio (RON2/AMA1)” value was found to be 1.01 ± 0.01 and the ΔH was -92.9 ± 0.84 kJ/mol. Moreover, in assay [4] (HBS pH 7.5), the “binding to TgAMA1 (in words)” value is “bound both TgRON2D3 and EtRON2D3 but only the former with high affinity”; the “-TΔS” value stood at 24.7 kJ/mol; the ΔG is -46.9 kJ/mol. Also, the Kd in assay [4] (HBS (20 mM HEPES pH 7.5, 150 mM NaCl), one-site model, single experiment, representative of at least two independent experiments, read-out: Kd) came out at 0.0058 ± 0.0028 µM. In addition, in assay [4] (HBS pH 7.5, single experiment), the “Molar Ratio (RON2/AMA1)” value worked out at 1.00 ± 0.01 and the ΔH is -71.5 ± 0.84 kJ/mol.
On to “TgRON2L1D3 thioredoxin fusion (Toxoplasma gondii RON2L1 domain 3 peptide)”, for which, in assay [2], the Kd worked out at 46 µM and the stoichiometry N amounted to 1.
For “TgRON2L2D3 thioredoxin fusion (Toxoplasma gondii RON2L2 domain 3 peptide)”, in that order: 6 µM and 1.
